Patent US6294526A, “Use of flavone derivatives for induction of β-lactam-sensitivity of MRSA” (priority 1998, dated 2001)
Converted amounts (≈) assume the structure as drawn. Like-named read-outs stand apart in the source and are kept apart here.

What was measured:
MRSA [1] = assay: antibacterial activity (MIC) by agar plate dilution method, MRSA strains; format: cell-based, methicillin-resistant Staphylococcus aureus
Summary of the method: (§1)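 Mueller-Hinton agar plates containing 2-fold serial β-lactam dilutions plus a fixed concentration of test sample; inoculum 10^6 CFU/ml, 37° C. for 20 hours. MIC read as concentration inhibiting growth; MIC80 and MIC50 = 80% and 50% growth inhibition. Flavones dissolved in methanol, others in 0.1 N NaOH.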

MSSA = assay: antibacterial activity (MIC) by agar plate dilution method, MSSA strains; format: cell-based, Methicillin-sensitive Staphylooccus aureus
Summary of the method: as §1

MRSA [2] = assay: antibacterial activity of antibiotics alone and in the presence of apigenin (4 μg/ml), MRSA; format: cell-based, methicillin-resistant Staphylococcus aureus; conditions: apigenin 4 μg/ml or less than its MIC
Description: (§2) The screening of the present invention may be carried out according to the agar plate dilution method designated by the Japan Society of Chemotherapy (Chemotherapy 29(1), 76-79 (1981)). Mueller-Hinton agar base semi-synthetic medium may be used for a plate culture medium for a sensitivity test together with an inoculating bacteria solution which may be prepared by culturing bacteria to be tested at 37° C. for 20 hours diluted with 8.5% by isotonic sodium chloride solution to 10^6 CFU/ml. Diluted β-lactam solutions are prepared by two times serial dilution. 1 ml of the diluted β-lactam solution and 1 ml of a predetermined concentration of a sample to be tested are added to 8 ml of the plate culture medium for a sensitivity test. To the resultant plate culture medium for sensitivity test, the bacteria are inoculated using a microplanter (SAKUMASEISAKUSYO Co.), cultured for 20 hours at 37° C. followed by assessing for a minimum inhibition concentration (MIC).
(D) Then use of 4 μg/ml of apigenin and other antibiotics at the same time was studied. The antibiotics are penicillin , ampicillin, cephalothin, cefoxitin, cefuroxime, cefotaxime, vancomycin, streptomycin, chloramphenicol, kanamycin, erythromycin, nalixic acid and tetracycline.

MRSA and MSSA = assay: antibacterial activity (MIC) by agar plate dilution method, MRSA and MSSA strains together; format: cell-based, Staphylococcus aureus; conditions: MRSA and MSSA, Table 2
Description: as §2, with “(MIC). […]” for “(MIC).”
Antibacterial activity is determined for flavones including flavone, flavonol, flavanone, isoflavone, catechin and calchone, as follows:
Flavones were dissolved in methanol and the others were dissolved in 0.1 N NaOH. A method for determination of antibacterial activity is, as described above, an agar plate dilution method designated by the Japan Society of Chemotherapy (Chemotherapy 29(1), 76-79 (1981)) to determine MIC value. MIC80 is a concentration at which a strain is prohibited to proliferate by 80% and MIC50 is a concentration at which a strain is prohibited to proliferate by 50%.

In the case of `O=c1cc(-c2ccc(O)cc2)oc2cc(O)cc(O)c12` [Apigenin, apigenin], the MIC (MRSA [1]; MRSA strain No. 1) is reported as 7.8 µg/mL (≈ 28.9 µM), the MIC (MRSA [1]; MRSA strain No. 2) is reported as 3.9 µg/mL (≈ 14.4 µM) and the MIC (MRSA [1]; MRSA strain No. 3) is reported as 7.8 µg/mL (≈ 28.9 µM). For the same compound, the MIC (MRSA [1]; MRSA strain No. 4) was 7.8 µg/mL (≈ 28.9 µM), the MIC (MRSA [1]; MRSA strain No. 5) was 3.9 µg/mL (≈ 14.4 µM) and the MIC (MRSA [1]; MRSA strain No. 6) was 3.9 µg/mL (≈ 14.4 µM). The MIC (MRSA [1]; MRSA strain No. 8) was 3.9 µg/mL (≈ 14.4 µM), the MIC (MRSA [1]; MRSA strain No. 9) was 3.9 µg/mL (≈ 14.4 µM) and the MIC (MRSA [1]; MRSA strain No. 9, listed as SB-1) was 15.6 µg/mL (≈ 57.7 µM). The MIC (MRSA [1]; MRSA strain No. 13) was 7.8 µg/mL (≈ 28.9 µM), the MIC (MRSA [1]; MRSA strain No. 13, listed as SB-1) was 31.3 µg/mL (≈ 116 µM) and the MIC (MRSA [1]; MRSA strain No. 14) was 7.8 µg/mL (≈ 28.9 µM). The MIC (MRSA [1]; MRSA strain No. 14, listed as SB-1) was 31.3 µg/mL (≈ 116 µM), the MIC (MRSA [1]; MRSA strain No. 15) was 7.8 µg/mL (≈ 28.9 µM) and the MIC (MRSA [1]; MRSA strain No. 16) was 7.8 µg/mL (≈ 28.9 µM). It also gave an MIC (MRSA [1]; MRSA strain No. 17) of 3.9 µg/mL (≈ 14.4 µM), an MIC50 (MRSA [1]; Staphylococcus aureus, 20 h, MRSA (20 strains), read-out: MIC50) of 7.8 µg/mL (≈ 28.9 µM) and an MIC (MRSA [1]; Staphylococcus aureus, MRSA, 20 h, MRSA strain No. 1, read-out: MIC) of 15.6 µg/mL (≈ 57.7 µM). The MIC (MRSA [1]; Staphylococcus aureus, MRSA, 20 h, MRSA strain No. 2, read-out: MIC) was 7.8 µg/mL (≈ 28.9 µM), the MIC (MRSA [1]; Staphylococcus aureus, MRSA, 20 h, MRSA strain No. 3, read-out: MIC) was 15.6 µg/mL (≈ 57.7 µM) and the MIC (MRSA [1]; Staphylococcus aureus, MRSA, 20 h, MRSA strain No. 4, read-out: MIC) was 15.6 µg/mL (≈ 57.7 µM). For the same compound, the MIC (MRSA [1]; Staphylococcus aureus, MRSA, 20 h, MRSA strain No. 5, read-out: MIC) was 7.8 µg/mL (≈ 28.9 µM), the MIC (MRSA [1]; Staphylococcus aureus, MRSA, 20 h, MRSA strain No. 6, read-out: MIC) was 7.8 µg/mL (≈ 28.9 µM) and the MIC (MRSA [1]; Staphylococcus aureus, MRSA, 20 h, MRSA strain No. 7, read-out: MIC) was 3.9 µg/mL (≈ 14.4 µM). For the same compound, the MIC (MRSA [1]; Staphylococcus aureus, MRSA, 20 h, MRSA strain No. 8, read-out: MIC) was 7.8 µg/mL (≈ 28.9 µM), the MIC (MRSA [1]; Staphylococcus aureus, MRSA, 20 h, MRSA strain No. 10, read-out: MIC) was 15.6 µg/mL (≈ 57.7 µM) and the MIC (MRSA [1]; Staphylococcus aureus, MRSA, 20 h, MRSA strain No. 11, read-out: MIC) was over 250 µg/mL. The MIC (MRSA [1]; Staphylococcus aureus, MRSA, 20 h, MRSA strain No. 12, read-out: MIC) was over 250 µg/mL, the MIC (MRSA [1]; Staphylococcus aureus, MRSA, 20 h, MRSA strain No. 15, read-out: MIC) was 15.6 µg/mL (≈ 57.7 µM) and the MIC (MRSA [1]; Staphylococcus aureus, MRSA, 20 h, MRSA strain No. 16, read-out: MIC) was 15.6 µg/mL (≈ 57.7 µM). It also gave an MIC (MRSA [1]; Staphylococcus aureus, MRSA, 20 h, MRSA strain No. 17, read-out: MIC) of 7.8 µg/mL (≈ 28.9 µM), an MIC (MRSA [1]; Staphylococcus aureus, MRSA, 20 h, MRSA strain No. 18, read-out: MIC) of over 250 µg/mL and an MIC (MRSA [1]; Staphylococcus aureus, MRSA, 20 h, MRSA strain No. 19, read-out: MIC) of over 250 µg/mL. It also gave an MIC (MRSA [1]; Staphylococcus aureus, MRSA, 20 h, MRSA strain No. 20, read-out: MIC) of 31.3 µg/mL (≈ 116 µM), an MIC (MSSA; MSSA strain No. 21) of over 250 µg/mL and an MIC (MSSA; MSSA strain No. 22) of over 250 µg/mL. For the same compound, the MIC (MSSA; MSSA strain No. 24) was 3.9 µg/mL (≈ 14.4 µM), the MIC (MSSA; MSSA strain No. 24, listed as SB-1) was 31.3 µg/mL (≈ 116 µM) and the MIC (MSSA; MSSA strain No. 25) was 3.9 µg/mL (≈ 14.4 µM). The MIC (MSSA; MSSA strain No. 27) was 15.6 µg/mL (≈ 57.7 µM), the MIC (MSSA; MSSA strain No. 27, listed as SB-1) was 31.3 µg/mL (≈ 116 µM) and the MIC50 (MSSA; Staphylococcus aureus, 20 h, MSSA (7 strains), read-out: MIC50) was 15.6 µg/mL (≈ 57.7 µM). It also gave an MIC (MSSA; Staphylococcus aureus, MSSA, 20 h, MSSA strain No. 21, read-out: MIC) of 250 µg/mL (≈ 925 µM), an MIC (MSSA; Staphylococcus aureus, MSSA, 20 h, MSSA strain No. 22, read-out: MIC) of 250 µg/mL (≈ 925 µM) and an MIC (MSSA; Staphylococcus aureus, MSSA, 20 h, MSSA strain No. 23, read-out: MIC) of 15.6 µg/mL (≈ 57.7 µM). The MIC (MSSA; Staphylococcus aureus, MSSA, 20 h, MSSA strain No. 25, read-out: MIC) was 7.8 µg/mL (≈ 28.9 µM), the MIC (MSSA; Staphylococcus aureus, MSSA, 20 h, MSSA strain No. 26, read-out: MIC) was 15.6 µg/mL (≈ 57.7 µM) and the “inhibition of β-lactam resistant MRSA / improvement of antibacterial effect with apigenin (in words)” value (MRSA [2]) was “could improve antibacterial effect of methicillin on MRSA”. The “antibacterial activity (in words)” value (MRSA and MSSA) was “showed antibacterial activity”.
